Data reported in patent US20160052918A1, “SMALL COMPOUNDS TARGETING TACC3” (JAPANESE FOUNDATION FOR CANCER RESEARCH, priority 2012, published 2016).
In brackets after ≈: the same amount, converted by molar mass.

Columns and labels:
Assay type in all cases: cell-based
[1] = system: SKOV-3 cells expressing EGFP-α-tubulin; test: Mitotic arrest of synchronized EGFP-α-tubulin-expressing SKOV-3 cells, time-lapse single-cell analysis
Procedure: The EGFP-α-tubulin-expressing cells used in the assay will be described. In order to observe mitosis under a fluorescence microscope, cells expressing EGFP-α-tubulin (fusion protein of a fluorescent protein, EGFP, and α-tubulin) were prepared. A system observable under a fluorescence microscope without cell fixation was prepared.
Ovary cancer cells SKOV-3 were cultured in an RPMI1640 medium supplemented with 5% fetal bovine serum. Stable cells expressing EGFP-α-tubulin were transduced by lentiviral transduction using pLenti4/V5-DEST vectors (Registered Trade Mark) (manufactured by Invitrogen Corp.) and selected by the FACS sorting of infected cells using Zeocin (Registered Trade Mark) and subsequent FACSAria (Registered Trade Mark) (Becton, Dickinson and Company).
The compounds NPD2448, NPD2568, NPD3574, NPD4089, and C7—O-propylated NPD3574 were each added at varying concentrations to the culture medium of SKOV-3 cells expressing EGFP-α-tubulin and analyzed for their effect on cell division.
The SKOV-3 cells expressing EGFP-α-tubulin were synchronized by thymidine block to analyze the effect on cell division of each compound. As shown in the upper part of FIG. 2, each compound was added to the culture medium after the 1st thymidine block. After synchronization by the second thymidine block, images were taken every 2 minutes for 3 days using Leica AF6000 and ×20/0.5 Plan Fluotar objective lens in a phenol red-free RPMI1640 medium supplemented with 5% fetal bovine serum. These time-lapse images were analyzed using ImageJ 1.42a software, and the time of mitotic arrest was determined by visual judgment. The duration of mitosis was manually determined from the image sequences of at least 50 cells.
The mitotic arrest (EC50=50% arrest rate) was tested by the microscopic analysis of individual single cells.
EGFP-α-tubulin-expressing SKOV-3 cells synchronized by double thymidine block in the same way as in Example 2 were treated with each synthesized compound and subjected to time-lapse photography for 3 days. At least 50 cells were observed. The time of arrest of each cell was calculated, and EC50 was determined therefrom.
EGFP-α-tubulin-expressing SKOV-3 cells supplemented with each of SPL-A and SPL-B at varying concentrations were synchronized by double thymidine block in the same way as in Example 2. Analysis based on single cells was conducted by time-lapse photography. The duration of mitosis was measured from the image sequences of at least 50 cells.

[2] = system: mouse lymphoma cell line; test: Cell death of lymphoma (survival rate, WST-1); conditions: 72 h, IC50=50% survival rate, three days
Procedure: The synthesized compounds were analyzed for their activity against cell death induction using a mouse lymphoma cell line (see Non Patent Literature 12), which was a cell line derived from thymic lymphoma developed in p53KO mouse.
The number of the lymphoma cells was adjusted to 1.2×10^5 cells/ml. The cells were inoculated at a concentration of 50 μl/well to a 96-well culture dish. A medium containing each RT compound as the novel compound of the present invention at twice the concentration of 50 μl was further added thereto (final concentration: 0.021 to 13.3 μg/ml). Three days after cultivation, the survival rate was calculated using WST-1 reagent (manufactured by F. Hoffmann-La Roche, Ltd.).

[3] = system: SKOV-3 cells expressing EGFP-α-tubulin; test: Cell fate determination by time-lapse photography, SKOV-3; conditions: 13.3 μg/ml SPL-A or 2.7 μg/ml SPL-B
Procedure: (§1) The cells used were SKOV-3 cells and OVCAR-3 cells expressing EGFP-α-tubulin.
(§2) The OVCAR-3 cells expressing EGFP-α-tubulin were obtained using the same procedure as that for the SKOV-3 cells expressing EGFP-α-tubulin. The cells supplemented with each of SPL-A and SPL-B were synchronized by double thymidine block in the same way as in Example 2. Images were obtained by time-lapse photography and analyzed. The cells of each line were treated with 13.3 μg/ml SPL-A or 2.7 μg/ml SPL-B. The cell fate was manually determined from the image sequence of at least 50 cells with the time point of nuclear envelope breakdown defined as 0.

[4] = system: OVCAR-3 cells expressing EGFP-α-tubulin; test: Cell fate determination by time-lapse photography, OVCAR-3; conditions: 13.3 μg/ml SPL-A or 2.7 μg/ml SPL-B
Procedure: as §1, §2

[5] = system: SKOV-3 cells; test: Abnormal spindle morphology by immunostaining, SKOV-3; conditions: 24 hours
Procedure: (§3) SPL-A was added at each concentration to the SKOV-3 or OVCAR-3 cells. Twenty four hours after incubation, the cells were fixed and immunostained using antibodies against cell division-related substances such as α-tubulin described below. The percentage of spindle morphology was determined from at least 50 cells. The data was indicated by a mean of three independent experiments and SD.
(§4) The immunostaining was carried out by the following method: the cells were fixed in 3.7% PFA, methanol, or 10% TCA on a chamber slide, then permeabilized with 0.2% Triton-X100 in PBS, and incubated with primary antibodies. A monoclonal antibody (DM1A) against α-tubulin and monoclonal antibodies (DQ19 and GTU-88) against γ-tubulin were obtained from Sigma-Aldrich Corp. An anti-centrin 2 antibody (sc-27793) was purchased from Santa Cruz Biotechnology, Inc. Fluorescent labelled goat anti-mouse IgG (Cappel) and Cy3 labelled goat anti-rabbit IgG (Millipore) antibodies were used as secondary antibodies. DNA was detected using 4,6-diamidino-2-phenylindole (DAPI). Images were obtained using Leica DM6000B microscope equipped with ×100/1.40-0.70 PlanApo objective lens and Z-projections.
(§5) FIGS. 5A and B show the results of analyzing spindle morphology. The percentage of spindle morphology was indicated by the percentage (%) of normal, multipolar, disorganized, or monopolar spindles to the number of mitotic cells. […]

[6] = system: OVCAR-3 cells; test: Abnormal spindle morphology by immunostaining, OVCAR-3; conditions: 24 hours
Procedure: as §3, §4, §5

[7] = system: cancer cell lines SKOV-3 and OVCAR-3; test: G2/M-phase cells by PI flow cytometry, cancer cell lines; conditions: two cancer cell lines, 24 hours, FIG. 10
Procedure: (§6) (A) Two cancer cell lines SKOV-3 and OVCAR-3 and three normal cell lines hTERT-RPE, MCF 10A, and 184B5 were treated with SPL-A at concentrations shown in the abscissa of FIG. 10A for 24 hours, then stained with propidium iodide (PI), and analyzed by flow cytometry.
(§7) The same two cancer cell lines and three normal cell lines as in (A) were treated with each of paclitaxel, vincristine, and vinblastine acting on microtubule formation, S-trityl-L-cysteine (STLC) and SB743921 acting on proteins involved in mitosis, an Aurora kinase inhibitor VX680, and a polo-like kinase (PLK) inhibitor BI2536 at concentrations shown in the abscissa of FIG. 10B for 24 hours, then stained with propidium iodide (PI), and analyzed by flow cytometry.

[8] = system: normal cell lines hTERT-RPE, MCF 10A, and 184B5; test: G2/M-phase cells by PI flow cytometry, normal cell lines; conditions: 3 normal cell lines, 24 hours, FIG. 10
Procedure: as §6, §7

- EC50 ([1]; Homo sapiens, SK-OV-3, 72 h, mitotic arrest, EC50=50% arrest rate, double thymidine block, time-lapse 3 days, at least 50 cells, read-out: SKOV3 EC50): 0.79 µg/mL (≈ 1.77 µM)
- inhibitory effect on cell division [8]: no inhibitory effect on cell division
SMILES: O=c1cc(-c2cc3ccccc3oc2=O)c2ccc(O)c(CN3CCC(CCO)CC3)c2o1 [RT-011]
- concentration at which mitotic arrest was induced ([1]; Example 5, FIG. 3, final concentrations): 2.667 µg/mL
- inhibitory effects on cell growth ([1]; summary of Table 2 (SKOV-3 mitotic arrest and lymphoma cell death)): remarkable inhibitory effects on cell growth
- IC50 [2]: 2.15 µg/mL (≈ 4.8 µM)
- cell fate of most cells [3]: mitotic slippage
- cell fate of most cells [4]: mitotic death
- percentage of cells with multipolar spindles ([5]; SKOV-3, 1.25 μg/ml): 53.3%
- percentage of cells with disorganized spindles ([5]; SKOV-3, 5 μg/ml): 56.7%
- percentage of cells with multipolar spindles ([6]; OVCAR-3, 1.25 μg/ml): 44.0%
- percentage of cells with disorganized spindles ([6]; OVCAR-3, 2.5 μg/ml): 57.3%
- percentage of G2/M-phase cells / cell division [7]: increased the percentage of G2/M-phase cells in a concentration-dependent manner
